Data as given in patent US9241964B2, “Composition from Sphaeranthus indicus and Garcinia mangostana for the control of metabolic syndrome” (LAILA NUTRACEUTICALS, priority 2009, dated 2016).

What was measured:
α-glucosidase = assay: α-Glucosidase inhibition (p-nitrophenyl α-D-glucopyranose); assay type: biochemical; settings: pH 7, room temperature
Procedure: α-Glucosidase inhibitory activity was measured using the in vitro method developed by D. Prasanth et al., (Fitoterapia 2001, 72, 686-688). In a micro plate well was taken 50 μL of α-glucosidase enzyme (0.4 U/mL), and treated with 90 μL of 100 mM phosphate buffer (pH 7) and 10 μL test substances (α-mangostin, γ-mangostin and AR 933) or vehicle control. The contents were mixed well and the reaction mixtures were incubated at room temperature for 5 min, and then added 50 μL of p-nitrophenyl α-D-glucopyranose (20 mM) as substrate. The contents were mixed well and again incubated at room temperature for 15 min. The reaction was stopped by the addition of 30 μL of sodium carbonate solution (135 mM). The absorbance was measured at 405 nm using micro plate reader. Control and test blank ODs were obtained by replacing enzyme with buffer. Percentage inhibitions were calculated by comparing mean test OD with mean control OD. {% inhibition=[(COD−TOD)/COD]×100}. The IC50 values were calculated by linear regression analysis of the dose response curve.

[1] = test system: 3T3-L1 mouse pre-adipocyte cells; assay: Inhibition of lipid accumulation in differentiated adipocytes (Oil Red O); assay type: cell-based; settings: 10 μg/ml; 3T3-L1 (Table III)
Procedure: The inhibition of fat accumulation in the treated cells was compared with the mock treated differentiated adipocytes and percentage inhibition was measured.
One hundred thousand 3T3-L1 […] pre-adipocyte cells in Dulbecco's Modified Eagles Medium (DMEM) containing 10% Fetal Bovine Serum (FBS) were taken into each well of a 24-well plate and incubated for 48 h at 37° C. and 5% CO2. The differentiation of pre-adipocyte cells was initiated in a differentiation medium containing 10 μg/ml insulin, 1.0 μM dexamethasone, and 0.5 mM isobutylmethylxanthine (IBMX) for 48 h. After this the medium was replaced by DMEM containing 10 μg/ml insulin and incubated for 3 days. Then the differentiating cells were treated 10 μg/ml of Sphaeranthus indicus ethyl acetate extract (LI/DD-II/054A/01) and 0.5 μg/ml of 7-hydroxyfrullanolide (LI054A01) and maintained in the medium for another 3-5 days. The cells incubated with 0.1% DMSO were considered as the vehicle control. After the incubation period, cells were washed with phosphate buffered saline (PBS) and fixed with 10% buffered formalin for 1 h at room temperature. One small aliquot of cell suspension was separated for cell counting in hemocytometer chamber. Fixed cells were stained with Oil Red O solution to measure the cellular neutral lipid accumulation. Briefly, cells were washed with PBS, fixed with 10% buffered formalin and stained with Oil Red O solution (0.5 g in 100 ml isopropanol) for 10 min. After removing the staining solution, the dye retained in the cells will be eluted into isopropanol and OD measured at 550 nm. The inhibition of fat accumulation in the treated cells was compared with the mock treated differentiated adipocytes. The treated and control cells were also analyzed and compared for inhibition of lipid accumulation visually under microscope and recorded digitally in suitable image capture system. The anti-adipogenic activities shown by Sphaeranthus Indicus ethyl acetate extract (LI/DD-II/054A/01) and LIO054A01 are summarized in the following table.

α-amylase = assay: α-Amylase inhibition (DNS method); assay type: biochemical; settings: 1% soluble starch as substrate
Procedure: α-Amylase inhibitory activity was measured using the dinitrosalicylic acid (DNS) method developed by Bernfeld (Methods in Enzymology, 1955, Vol. 1, pp 149-158), improved by Jamieson et al (Journal of Dental Research 1969; 48(3): 483) and adopted for testing inhibitory potential of test substances by M. C. M da Silva et al (2004, Pesq. Agropec. bras., Brasilia, 2004; 39(3); pp 201-208) using 1% soluble starch as substrate.
The test substances (α-mangostin, γ-mangostin and AR 933) were pre-incubated with α-amylase 100 μL (10-25 U/mL) at room temperature for 20 minutes prior to the addition of 100 μL of the substrate solution followed by incubation at 37° C. for 10 minutes. The reactions were stopped by the addition of 200 μL of DNS reagent, followed by color development by placing the tubes in boiling water for 5 minutes. After addition of 3.6 mL distilled water, the absorbance was read at 470 nm. Known α-amylase inhibitor was used as positive control and vehicle was used as negative control. Assays were carried out at least in duplicate. Percentage inhibition will be calculated by comparing mean test OD with mean control OD. {% inhibition=[(COD−TOD)/COD]×100}. The IC50 values were calculated by linear regression analysis of the dose response curve.

[2] = test system: 3T3-L1 pre-adipocyte cells; assay: Pro-lipolytic activity in differentiated adipocytes (free glycerol release); assay type: cell-based, mouse; settings: 3T3-L1 (Table IV)
Procedure: Similarly, the pro-lipolytic activity of the ethyl actate extract (LI/DD-II/054A/01) of Sphaeranthus indicus was assessed in differentiated/mature adipocytes using 3T3-L1 pre-adipocyte cells. The lipolytic activity was assessed in mature adipocytes by measuring free glycerol secreted into the culture medium as per the procedure of Adipolysis Assay Kit (Chemicon International, USA).
The lipolytic activity was assessed in mature adipocytes as per the procedure of Chemicon International, USA, by measuring free glycerol secreted into the culture medium. One hundred thousand 3T3-L1 […] pre-adipocyte cells in Dulbecco's Modified Eagles Medium (DMEM) containing 10% Fetal Bovine Serum (FBS) were taken into each well of a 24-well plate and incubated for 48 h at 37° C. and 5% CO2. The differentiation of pre-adipocyte cells was initiated in a differentiation medium containing 10 μg/ml insulin, 1.0 μM dexamethasone, and 0.5 mM isobutylmethylxanthine (IBMX). The cells were differentiated for 5 days and then the culture medium was removed. […] The samples and the controls were incubated for 15 min, and the absorbance was read at 540 nm. […]

| SMILES | IC50 (μg/ml) for α-glucosidase (α-glucosidase) [µg/mL] | % inhibition of Lipid accumulation 10 μg/ml [1] [%] | IC50 (μg/ml) for α-amylase (α-amylase) [µg/mL] | % acceleration of lipolysis 25 μg/ml [2] [%] |
| --- | --- | --- | --- | --- |
| COc1c(O)cc2oc3cc(O)c(CC=C(C)C)c(O)c3c(=O)c2c1CC=C(C)C [α-mangostin] | 0.30 | 16.06 | 3.99 | 156.56 |
| CC(C)=CCc1c(O)cc2oc3cc(O)c(O)c(CC=C(C)C)c3c(=O)c2c1O [γ-mangostin] | 0.16 | 61.57 | 3.88 | 4.52 |
